Experimental data taken from article PMC4091617 (Chemical communications (Cambridge, England), 2011).

Biological target: T1, DhpI (Streptomyces luridus, UniProt D7PC21)
T1 sequence (D7PC21 1-218): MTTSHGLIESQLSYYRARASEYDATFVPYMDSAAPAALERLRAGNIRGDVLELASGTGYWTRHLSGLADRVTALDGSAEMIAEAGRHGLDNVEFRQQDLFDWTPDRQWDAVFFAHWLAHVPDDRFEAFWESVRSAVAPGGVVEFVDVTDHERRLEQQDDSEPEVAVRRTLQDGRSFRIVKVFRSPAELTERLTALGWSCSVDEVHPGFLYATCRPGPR
Assay: in vitro O-methylation
Type: biochemical
Conditions: SAM as methyl donor; Pfs present

Compound: CC(=O)N(O)CCCP(=O)(O)O [FR-900098]
- in vitro O-methylation: These four phosphonates were used as the basis; each was methylated by DhpI
